Results taken from patent US10947252B2, “Inhibitors of KEAP1-Nrf2 protein-protein interaction” (Janssen Pharmaceutica NV, priority 2018, dated 2021).

Legend:
[1] = target: Kelch domain of human KEAP1 (321-624 aa) (Homo sapiens (Human), UniProt Q14145); experiment: KEAP1 KELCH ThermoFluor binding assay; settings: KEAP Kelch […], 1,8-ANS, pH 7.0, average of results obtained, read-out: Tf Kd;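 further: Ligand-induced melting temperature shift of E. coli-expressed KEAP1 Kelch protein, Kd estimated from concentration-response curves of ΔTm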
Kelch domain of human KEAP1 (321-624 aa), sequence (Q14145 321-624): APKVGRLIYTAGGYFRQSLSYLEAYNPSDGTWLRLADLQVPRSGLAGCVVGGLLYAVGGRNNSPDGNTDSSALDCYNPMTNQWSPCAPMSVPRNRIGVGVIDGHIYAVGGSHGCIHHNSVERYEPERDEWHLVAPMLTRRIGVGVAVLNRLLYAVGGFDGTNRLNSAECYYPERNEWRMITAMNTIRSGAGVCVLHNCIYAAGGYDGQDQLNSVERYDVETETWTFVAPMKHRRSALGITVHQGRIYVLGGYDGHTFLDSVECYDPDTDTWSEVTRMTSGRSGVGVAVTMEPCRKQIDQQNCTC

[2] = test system: Glo-Response ARE-luc2P HEK293 cell line; experiment: ARE luciferase reporter cell-based assay; settings: Homo sapiens, HEK293, 24 h, average of results obtained;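 further: luciferase signal tracks Nrf2 activation of the ARE once compounds disrupt KEAP1-Nrf2 binding, read with One-Glo reagent, DMSO serving as low control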

Compound: CCn1nnc2c(C)c([C@@H](CC(=O)O)c3ccc(C)c(CN4CC5(CC5)Oc5ncccc5S4(=O)=O)n3)ccc21 (single isomer, unassigned) [Example 245, (*R)-3-(6-((1′,1′-Dioxidospiro[cyclopropane-1,4′-pyrido[2,3-b][1,4,5]oxathiazepin]-2′(3′H)-yl)methyl)-5-methylpyridin-2-yl)-3-(1-ethyl-4-methyl-1H-benzo[d][1,2,3]triazol-5-yl)propanoic Acid]
- Kd [1]: < 1 nM
- EC50 [2]: 140 nM

Compound: Cc1cnc([C@@H](c2ccn3c(C(F)F)nnc3c2C)C(C)(C)C(=O)O)cc1CN1CC2(CC2)Oc2nc(OCCN3CCCC3)c(C)cc2S1(=O)=O (single isomer, unassigned) [Example 636, (*S)-3-(3-(Difluoromethyl)-8-methyl-[1,2,4]triazolo[4,3-a]pyridin-7-yl)-2,2-dimethyl-3-(5-methyl-4-((8′-methyl-1′,1′-dioxido-7′-(2-(pyrrolidin-1-yl)ethoxy)spiro[cyclopropane-1,4′-pyrido[2,3-b][1,4,5]oxathiazepin]-2′(3′H)-yl)methyl)pyridin-2-yl)propanoic Acid]
- Kd [1]: < 1 nM
- EC50 [2]: 40.2 nM

Compound: Cc1cnc2c(c1)S(=O)(=O)N(Cc1nc([C@@H](c3ccn4c(C(F)(F)F)nnc4c3C)C(C)(C)C(=O)O)ccc1C)CC1(CNC1)O2 (single isomer, unassigned) [Example 630, (*S)-2,2-Dimethyl-3-(8-methyl-3-(trifluoromethyl)-[1,2,4]triazolo[4,3-a]pyridin-7-yl)-3-(5-methyl-6-((8′-methyl-1′,1′-dioxidospiro[azetidine-3,4′-pyrido[2,3-b][1,4,5]oxathiazepin]-2′(3′H)-yl)methyl)pyridin-2-yl)propanoic Acid]
- Kd [1]: 3.81 nM
- EC50 [2]: 81.8 nM

Compound: Cc1ncc([C@H](c2ccc3c(nnn3C3CC3)c2C)C(C)(C)C(=O)O)cc1CN1CC2(COC2)Oc2ncccc2S1(=O)=O (single isomer, unassigned) [Example 612, (*S)-3-(1-Cyclopropyl-4-methyl-1H-benzo[d][1,2,3]triazol-5-yl)-3-(5-((1′,1′-dioxidospiro[oxetane-3,4′-pyrido[2,3-b][1,4,5]oxathiazepin]-2′(3′H)-yl)methyl)-6-methylpyridin-3-yl)-2,2-dimethylpropanoic Acid]
- Kd [1]: 61500 nM
- EC50 [2]: 19900 nM

Compound: CC[C@@H]1CN(Cc2cc([C@H](CC(=O)O)c3ccn4c(C(F)(F)F)nnc4c3C)ccc2C)S(=O)(=O)c2cccnc2O1 (single isomer, unassigned) [Example 189, (*S)-3-(3-(((R)-4-Ethyl-1,1-dioxido-3,4-dihydro-2H-pyrido[2,3-b][1,4,5]oxathiazepin-2-yl)methyl)-4-methylphenyl)-3-(8-methyl-3-(trifluoromethyl)-[1,2,4]triazolo[4,3-a]pyridin-7-yl)propanoic Acid]
- Kd [1]: < 1 nM
- EC50 [2]: 11 nM

Compound: Cc1ccc([C@@H](c2ccn3c(C(F)(F)F)nnc3c2C)C(C)(C)C(=O)O)cc1CN1CC(C)(C)Oc2ncccc2S1(=O)=O (single isomer, unassigned) [Example 430, (*S)-3-(3-((4,4-dimethyl-1,1-dioxido-3,4-dihydro-2H-pyrido[2,3-b][1,4,5]oxathiazepin-2-yl)methyl)-4-methylphenyl)-2,2-dimethyl-3-(8-methyl-3-(trifluoromethyl)-[1,2,4]triazolo[4,3-a]pyridin-7-yl)propanoic Acid]
- Kd [1]: 7830 nM
- EC50 [2]: 647 nM

Compound: Cc1ccc([C@@H](c2ccn3c(C(F)(F)F)nnc3c2C)C(C)(C)C(=O)O)cc1CN1CC2(CCOCC2)Oc2nc(OCCO)ccc2S1(=O)=O (single isomer, unassigned) [Example 606, (*S)-3-(3-((7′-(2-Hydroxyethoxy)-1′,1′-dioxido-2,3,5,6-tetrahydrospiro[pyran-4,4′-pyrido[2,3-b][1,4,5]oxathiazepin]-2′(3′H)-yl)methyl)-4-methylphenyl)-2,2-dimethyl-3-(8-methyl-3-(trifluoromethyl)-[1,2,4]triazolo[4,3-a]pyridine-7-yl)propanoic Acid]
- Kd [1]: 1730 nM
- EC50 [2]: > 20000 nM

Compound: Cc1ccc([C@@H](c2ccc3c(nnn3CC3CC3)c2C)C(C)(C)C(=O)O)nc1CN1CC2(CCOCC2)Oc2nc(OCCN3CCOCC3)ccc2S1(=O)=O (single isomer, unassigned) [Example 328, (*S)-3-(1-(Cyclopropylmethyl)-4-methyl-1H-benzo[d][1,2,3]triazol-5-yl)-2,2-dimethyl-3-(5-methyl-6-((7′-(2-morpholinoethoxy)-1′,1′-dioxido-2,3,5,6-tetrahydrospiro[pyran-4,4′-pyrido[2,3-b][1,4,5]oxathiazepin]-2′(3′H)-yl)methyl)pyridin-2-yl)propanoic Acid]
- Kd [1]: < 1 nM
- EC50 [2]: 3.3 nM

Compound: CCn1nnc2c(C)c([C@H](c3ccc(C)c(CN4CC5(CCOCC5)Oc5ncccc5S4(=O)=O)n3)C(C)(C)C(=O)O)ccc21 (single isomer, unassigned) [Example 555, (*S)-3-(6-((1′,1′-Dioxido-2,3,5,6-tetrahydrospiro[pyran-4,4′-pyrido[2,3-b][1,4,5]oxathiazepin]-2′(3′H)-yl)methyl)-5-methylpyridin-2-yl)-3-(1-ethyl-4-methyl-1H-benzo[d][1,2,3]triazol-5-yl)-2,2-dimethylpropanoic Acid]
- Kd [1]: < 1 nM
- EC50 [2]: 1.42 nM

Compound: Cc1ccc([C@@H](c2ccn3c(C(F)(F)F)nnc3c2C)C(C)(C)C(=O)O)cc1CN1CC2(COC2)Oc2ncccc2S1(=O)=O (single isomer, unassigned) [Example 615, (*S)-3-(3-((1′,1′-dioxidospiro[oxetane-3,4′-pyrido[2,3-b][1,4,5]oxathiazepin]-2′(3′H)-yl)methyl)-4-methylphenyl)-2,2-dimethyl-3-(8-methyl-3-(trifluoromethyl)-[1,2,4]triazolo[4,3-a]pyridine-7-yl)propanoic Acid]
- Kd [1]: < 1 nM
- EC50 [2]: 1.09 nM

Compound: Cc1ccc([C@@H](CC(=O)O)c2ccn3c(C(F)(F)F)nnc3c2)cc1CN1C[C@@H]2CCCN2c2ncccc2S1(=O)=O (single isomer, unassigned) [Example 255, (*R)-3-(3-(((S)-5,5-Dioxido-7a,8,9,10-tetrahydropyrido[2,3-f]pyrrolo[2,1-d][1,2,5]thiadiazepin-6(7H)-yl)methyl)-4-methylphenyl)-3-(3-(trifluoromethyl)-[1,2,4]triazolo[4,3-a]pyridin-7-yl)propanoic Acid]
- Kd [1]: < 1 nM
- EC50 [2]: 922 nM

Compound: Cc1ccc([C@H](c2ccn3c(C(F)(F)F)nnc3c2C)C(C)(C)C(=O)O)cc1CN1CC2(CCOCC2)Oc2nc(NC(C)CN3CCCCC3)c(C)cc2S1(=O)=O (stereo in doubt) [Example 376, 3-(*R)-2,2-Dimethyl-3-(4-methyl-3-((8′-methyl-1′,1′-dioxido-7′-((1-piperidin-1-yl)propan-2-yl)amino)-2,3,5,6-tetrahydrospiro[pyran-4,4′-pyrido[2,3-b][1,4,5]oxathiazepin]-2′(3′H)-yl)methyl)phenyl)-3-(8-methyl-3-(trifluoromethyl)-[1,2,4]triazolo[4,3-a]pyridine-7-yl)propanoic Acid]
- Kd [1]: < 1 nM
- EC50 [2]: 57.3 nM

Compound: Cc1cnc2c(c1)S(=O)(=O)N(Cc1cc([C@@H](c3ccn4c(C(F)(F)F)nnc4c3C)C(C)(C)C(=O)O)ccc1C)CC1(CC1)O2 (single isomer, unassigned) [Example 314, (*S)-2,2-Dimethyl-3-(4-methyl-3-((8′-methyl-1′,1′-dioxidospiro[cyclopropane-1,4′-pyrido[2,3-b][1,4,5]oxathiazepin]-2′(3′H)-yl)methyl)phenyl)-3-(8-methyl-3-(trifluoromethyl)-[1,2,4]triazolo[4,3-a]pyridin-7-yl)propanoic Acid]
- Kd [1]: < 1 nM
- EC50 [2]: 1 nM

Compound: Cc1ccc([C@H](CC(=O)O)c2ccn3c(C(F)(F)F)nnc3c2C)cc1CN1C[C@H]2COCCN2c2ncc(Cl)cc2S1(=O)=O (single isomer, unassigned) [Example 197, (*S)-3-(3-(((*S)-3-Chloro-5,5-dioxido-7a,8,10,11-tetrahydro-[1,4]oxazino[3,4-d]pyrido[2,3-f][1,2,5]thiadiazepin-6(7H)-yl)methyl)-4-methylphenyl)-3-(8-methyl-3-(trifluoromethyl)-[1,2,4]triazolo[4,3-a]pyridin-7-yl)propanoic Acid]
- Kd [1]: < 1 nM
- EC50 [2]: 1.8 nM
